# Measurements taken from US11701364B2, “Agonists of stimulator of interferon genes sting” (The Scripps Research Institute, priority 2018, dated 2023).
# Target: T1, STING (Stimulator of Interferon Genes) (Homo sapiens, UniProt Q86WV6, G230A/H232R/R293Q/R71H)
# T1 construct: host or cells: THP-1-Lucia ISG cells (human monocytic line)
# Test: ISG-LUC activation assay (ISRE-Luciferase assay in THP-1 Lucia ISG reporter cells)
# Format: cell-based
# Conditions: THP-1 Lucia ISG cells, 24 hours, luciferase reporter; read-out: ISG-LUC activation assay (EC50)
# Excerpt: This has been established using a primary assay involving a human THP-1 cell line carrying an IRF-inducible reporter with 5 copies of the IFN signaling response element. Counter screens, involving alternative reporter constructs, rodent cell-based assays, as well as cGAS and STING knock-out cell lines, are used to eliminate luciferase artifacts and ensure human-rodent cross species reactivity, as well as pathway selectivity. Biochemical assays, involving cGAS enzymatic activity and STING protein binding assays, are used to identify the specific target of identified hits.
# THP-1 Lucia ISG cells were resuspended in low-serum growth media (2% FBS) at a density of 5×10^5 cells/ml and treated with test article or vehicle (DMSO). 50 μL of cells were seeded into each well of a 384-well white greiner plates and incubated for 24 hours. To evaluate expression of the luciferase reporter, 30 μl of Quanti-luc (Invivogen) detection reagent was added to each well and luminescence was read using an Envision plate reader (Perkin Elmer) set with an integration time of 0.1 seconds.
# T1 sequence (Q86WV6 whole entry R71H/G230A/H232R/R293Q): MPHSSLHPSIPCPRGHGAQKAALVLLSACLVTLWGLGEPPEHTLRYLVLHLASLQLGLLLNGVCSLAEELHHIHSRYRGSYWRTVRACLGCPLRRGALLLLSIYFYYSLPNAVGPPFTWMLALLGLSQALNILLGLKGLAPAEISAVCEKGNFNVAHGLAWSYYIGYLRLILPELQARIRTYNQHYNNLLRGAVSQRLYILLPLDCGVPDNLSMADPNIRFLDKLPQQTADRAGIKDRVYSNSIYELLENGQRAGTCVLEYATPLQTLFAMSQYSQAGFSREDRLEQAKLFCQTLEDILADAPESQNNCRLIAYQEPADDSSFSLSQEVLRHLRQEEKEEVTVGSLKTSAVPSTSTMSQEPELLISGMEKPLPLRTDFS
row,Structure (SMILES),EC50 [µM]
1,O=C(Nc1cc(F)c(OC(F)F)cc1C(=O)O)c1ccc(-n2ccnc2)nn1 [Compound 84],8.59
2,O=C(Nc1ccc(C2CC2)cc1C(=O)O)c1ccc(-n2ccnc2)nn1 [Compound 85],~16.6
3,O=C(Nc1cc(C(F)(F)F)ccc1C(=O)O)c1ccc(-n2ccnc2)nn1 [Compound 86],10.3
4,O=C(Nc1cc(F)c(F)cc1C(=O)NC1CCC(O)(C(F)(F)F)CC1)c1ccc(-n2ccnc2)nn1 (stereo not drawn) [Compound 87],> 20
5,O=C(Nc1cc(F)c(F)cc1C(=O)NC1CCC(O)(C(F)(F)F)CC1)c1ccc(-n2ccnc2)nn1 (stereo not drawn) [Compound 88],5.24
6,Cc1ccc(NC(=O)c2ccc(-n3ccnc3)nn2)c(C(=O)O)c1 [Compound 89],> 20
7,O=C(Nc1ccc(C(F)(F)F)cc1C(=O)O)c1ccc(-n2ccnc2)nn1 [Compound 90],> 20
8,COC(=O)c1cccc(C)c1NC(=O)c1ccc(-n2ccnc2)nn1 [Compound 91],~5.07
9,COC(=O)c1ccccc1NC(=O)c1ccc(-n2cnc(C#N)c2)nn1 [Compound 92],~5.26
10,COC(=O)c1ccccc1NC(=O)c1ccc(-n2cnc(C)c2)nn1 [Compound 93],> 20
11,CC(C)OC(=O)c1ccccc1NC(=O)c1ccc(-n2ccnc2)nn1 [Compound 95],1.7
12,COC(=O)c1cccc(Cl)c1NC(=O)c1ccc(-n2ccnc2)nn1 [Compound 96],21.1
13,COC(=O)c1cc(Cl)cc(C)c1NC(=O)c1ccc(-n2ccnc2)nn1 [Compound 97],~2.49
14,COC(=O)c1cc2c(cc1NC(=O)c1ccc(-n3ccnc3)nn1)OCO2 [Compound 98],2.68
15,COC(=O)c1c(F)ccc(Cl)c1NC(=O)c1ccc(-n2ccnc2)nn1 [Compound 99],11.9
16,COC(=O)c1c(Cl)cc(F)cc1NC(=O)c1ccc(-n2ccnc2)nn1 [Compound 100],10.2
17,Cc1cc(C(=O)O)c(NC(=O)c2ccc(-n3ccnc3)nn2)cc1C(F)(F)F [Compound 102],12.1
18,O=C(Nc1cc(Cl)c(Cl)cc1C(=O)O)c1ccc(-n2ccnc2)nn1 [Compound 103],0.451
19,COC(=O)c1cc(C)ccc1NC(=O)c1ccc(-n2ccnc2)nn1 [Compound 104],0.426
20,COC(=O)c1ccc(OC)cc1NC(=O)c1ccc(-n2ccnc2)nn1 [Compound 105],0.192
21,COC(=O)c1cc(Cl)ccc1NC(=O)c1ccc(-n2ccnc2)nn1 [Compound 106],0.346

row,Structure (SMILES),EC50 [µM]
1,COC(=O)c1cc(F)c(F)cc1NC(=O)c1ccc(-n2ccnc2)nn1 [Compound 107],0.415
2,COC(=O)c1cnccc1NC(=O)c1ccc(-n2ccnc2)nn1 [Compound 108],3.35
3,COC(=O)c1cc(O)ccc1NC(=O)c1ccc(-n2ccnc2)nn1 [Compound 109],8.95
4,CCOC(=O)c1cc[nH]c1NC(=O)c1ccc(-n2ccnc2)nn1 [Compound 110],16.9
5,Cc1cc(NC(=O)c2ccc(-n3ccnc3)nn2)c(C(=O)O)cc1C [Compound 111],7.25
6,CCOC(=O)C1=C(NC(=O)c2ccc(-n3ccnc3)nn2)CCCC1 [Compound 112],1.5
7,CCOC(=O)C1=C(NC(=O)c2ccc(-n3ccnc3)nn2)CCC1 [Compound 113],18.7
8,COC(=O)c1cc2c(cc1NC(=O)c1ccc(-n3ccnc3)nn1)CCCC2 [Compound 114],4.35
9,Cc1ccc(NC(=O)c2ccc(-n3ccnc3)nn2)c(C(O)(C(F)(F)F)C(F)(F)F)c1 [Compound 115],7.36
10,CCOC(=O)c1cc2c(nc1NC(=O)c1ccc(-n3ccnc3)nn1)CCN(C)C2 [Compound 116],3.46
11,COC(=O)c1cc2[nH]ncc2cc1NC(=O)c1ccc(-n2ccnc2)nn1 [Compound 117],~2.57
12,O=C(Nc1ccccc1-c1noc(O)n1)c1ccc(-n2ccnc2)nn1 [Compound 118],3.97
13,COC(=O)c1nn(C)cc1NC(=O)c1ccc(-n2ccnc2)nn1 [Compound 119],5.89
14,CCOC(=O)C1=C(NC(=O)c2ccc(-n3ccnc3)nn2)CCCCC1 [Compound 120],> 50
15,O=C(Nc1ccc2ccccc2c1C(O)(C(F)(F)F)C(F)(F)F)c1ccc(-n2ccnc2)nn1 [Compound 121],1.83
16,O=C(Nc1cc(F)c(F)cc1C(=O)NCCO)c1ccc(-n2ccnc2)nn1 [Compound 122],7.96
17,COC(=O)c1n[nH]cc1NC(=O)c1ccc(-n2ccnc2)nn1 [Compound 123],2.99
18,N=C(N)NCCC[C@H](NC(=O)c1cc(F)c(F)cc1NC(=O)c1ccc(-n2ccnc2)nn1)C(N)=O [Compound 124],8.08
19,Cc1cc(NC(=O)c2ccc(-n3ccnc3)nn2)c(C(N)=O)cc1C [Compound 125],9.62
20,O=c1[nH]c(-c2ccc(-n3ccnc3)nn2)nc2cc(F)c(F)cc12 [Compound 126],1.12
21,COC(=O)C1=C(NC(=O)c2ccc(-n3ccnc3)nn2)CC(C)(C)CC1 [Compound 127],7.3

row,Structure (SMILES),EC50 [µM]
1,CCOC(=O)C1=C(NC(=O)c2ccc(-n3ccnc3)nn2)CCOC1 [Compound 128],4.35
2,CCOC(=O)C1=C(NC(=O)c2ccc(-n3ccnc3)nn2)COCC1 [Compound 129],10.7
3,O=C(O)C1=C(NC(=O)c2ccc(-n3ccnc3)nn2)CCCC1 [Compound 130],14.8
4,CCOC(=O)C1=C(NC(=O)c2ccc(-n3ccnc3)nn2)CCC(F)(F)C1 [Compound 131],3.48
5,O=c1oc(-c2ccc(-n3ccnc3)nn2)nc2ccc(F)c(F)c12 [Compound 132],4.28
6,Cc1c(F)ccc2nc(-c3ccc(-n4ccnc4)nn3)oc(=O)c12 [Compound 133],4.17
7,Cc1cc(C(N)=O)c(NC(=O)c2ccc(-n3ccnc3)nn2)cc1F [Compound 134],> 50
8,CCOC(=O)C1=C(NC(=O)c2ccc(-n3ccnc3)nn2)C[C@@H](C)O[C@H]1C [Compound 135],12.3
9,COC(=O)C1=C(NC(=O)c2ccc(-n3ccnc3)nn2)CC(C)(C)OC1 [Compound 136],8.84
10,Cc1ccc2nc(-c3ccc(-n4ccnc4)nn3)oc(=O)c2n1 [Compound 137],9.33
11,NC(=O)c1cc(Cl)c(Cl)cc1NC(=O)c1ccc(-n2ccnc2)nn1 [Compound 138],> 50
12,O=c1oc(-c2ccc(-n3ccnc3)nn2)nc2cc3c(cc12)OCCO3 [Compound 139],2.52
13,O=c1oc(-c2ccc(-n3ccnc3)nn2)nc2ccc(C(F)(F)F)nc12 [Compound 140],~25.1
14,O=c1oc(-c2ccc(-n3ccnc3)nn2)nc2cc3c(cc12)OC(F)(F)O3 [Compound 141],> 50
15,COC(=O)c1cc(O)c(F)cc1NC(=O)c1ccc(-n2ccnc2)nn1 [Compound 142],> 50
16,CCOC(=O)c1c(F)ccc(F)c1NC(=O)c1ccc(-n2ccnc2)nn1 [Compound 143],9.71
17,Nc1cc(F)c(F)cc1NC(=O)c1ccc(-n2ccnc2)nn1 [Compound 144],> 50
18,COC(=O)c1nc(C2CC2)c(F)cc1NC(=O)c1ccc(-n2ccnc2)nn1 [Compound 145],1.58
19,O=C(Nc1cc(F)c(OC(F)(F)F)cc1C(=O)O)c1ccc(-n2ccnc2)nn1 [Compound 146],2.18
20,CN(O)C(=O)c1cc(F)c(F)cc1NC(=O)c1ccc(-n2ccnc2)nn1 [Compound 147],5.25
21,CCOC(=O)c1c(F)cc(F)c(F)c1NC(=O)c1ccc(-n2ccnc2)nn1 [Compound 148],3.68

row,Structure (SMILES),EC50 [µM]
1,COC(=O)c1cc(F)c(C)nc1NC(=O)c1ccc(-n2ccnc2)nn1 [Compound 149],30.1
2,O=C(Nc1cc(F)c(F)cc1C(=O)NO)c1ccc(-n2ccnc2)nn1 [Compound 150],12.2
3,COc1ccc(NC(=O)c2ccc(-n3ccnc3)nn2)c(C(=O)O)c1 [Compound 151],7.76
4,COC(=O)c1ncc(C(F)(F)F)cc1NC(=O)c1ccc(-n2ccnc2)nn1 [Compound 152],~1.27
5,CCOC(=O)c1nc2ccccc2cc1NC(=O)c1ccc(-n2ccnc2)nn1 [Compound 153],0.043
6,O=C(Nc1cc2ccccc2nc1C(=O)O)c1ccc(-n2ccnc2)nn1 [Compound 154],~10.4
7,CCOC(=O)C1=C(NC(=O)c2ccc(-n3ccnc3)nn2)C2CCC1O2 (stereo not drawn) [Compound 155],> 50
8,COC(=O)c1cccc(F)c1NC(=O)c1ccc(-n2ccnc2)nn1 [Compound 156],> 50
9,O=C(Nc1cc(Cl)nnc1C(=O)O)c1ccc(-n2ccnc2)nn1 [Compound 157],> 50
10,O=C(Nc1ccc(F)cc1C(=O)O)c1ccc(-n2ccnc2)nn1 [Compound 158],> 20
11,COC(=O)c1ccc(C(=O)OC)c(NC(=O)c2ccc(-n3ccnc3)nn2)c1 [Compound 159],> 20
12,COC(=O)c1cc(C(C)C)ccc1NC(=O)c1ccc(-n2ccnc2)nn1 [Compound 160],3.84
13,O=c1oc(-c2ccc(-n3ccnc3)nn2)nc2ccc(S(F)(F)(F)(F)F)cc12 [Compound 161],> 20
14,COC(=O)c1ccccc1NC(=O)c1ccc(-n2ccnc2)nn1 [Compound 162],0.956
15,CCN(CC)CC(C)(C)NC(=O)c1cc(F)c(F)cc1NC(=O)c1ccc(-n2ccnc2)nn1 [Compound 163],16.6
16,N#Cc1ccc(C(=O)O)c(NC(=O)c2ccc(-n3ccnc3)nn2)c1 [Compound 165],4.09
17,COC(=O)c1nc(OC)cnc1NC(=O)c1ccc(-n2ccnc2)nn1 [Compound 166],12.1
18,Cn1ncc2cc(C(=O)O)c(NC(=O)c3ccc(-n4ccnc4)nn3)cc21 [Compound 167],14.9
